Source: ChEMBL document CHEMBL1201862, “PubChem BioAssay data set” (2004)
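Tested at 5 concentrations; 48 h exposure; 96-well plates; endpoints linearly interpolated, else capped at highest concentration. GI50: concentration for 50% inhibition of growth.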 Active and inactive are the calls of the source. Rule as the data show it: active = GI50 up to about 1.1 µM and inactive = higher.

Columns and labels:
Experiment in all cases: NCI-60 cell line screen, 48 h
XF498 = test system: XF498
LXFL 529 = test system: LXFL 529
DMS-273 = test system: DMS-273
M19-MEL = test system: M19-MEL
DMS-114 = test system: DMS-114
RXF 631 = test system: RXF 631
DLD-1 = test system: DLD-1
HOP-18 = test system: HOP-18

Measured: GI50

N/C(=N\O)N/N=C/c1cccs1
inactive: XF498 98.9 µM | LXFL 529 32.4 µM | DMS-273 > 100 µM | M19-MEL > 100 µM | DMS-114 54.8 µM | RXF 631 > 100 µM | DLD-1 59.6 µM | HOP-18 53.8 µM

O=C(N/C(=C\c1c(O)ccc2ccccc12)c1nc2ccccc2[nH]1)c1ccccc1
inactive: XF498 > 100 µM | LXFL 529 > 100 µM | DMS-273 > 100 µM | M19-MEL > 100 µM | DMS-114 > 100 µM | RXF 631 > 100 µM | DLD-1 > 100 µM | HOP-18 > 100 µM

C[C@@]1(CBr)C[C@@](C)(/C=C/Cl)[C@@H](Cl)C[C@H]1Cl
inactive: XF498 11.7 µM | LXFL 529 10 µM | DMS-273 10.8 µM | M19-MEL 13.1 µM | DMS-114 12.7 µM | RXF 631 11.9 µM | DLD-1 13.6 µM | HOP-18 13.5 µM

C#CC1(O)CCC2[C@@H]3CCc4cc(Oc5nc(F)nc(-c6c7ccccc7c(SCC)n6CCC)n5)ccc4C3CC[C@@]21C (some centres not stated)
inactive: XF498 > 100 µM | LXFL 529 38.5 µM | DMS-273 > 100 µM | M19-MEL > 100 µM | DMS-114 31.3 µM | RXF 631 > 100 µM | DLD-1 > 100 µM | HOP-18 24.2 µM
